Measured values as given in patent publication US10723704B2, “Pyrazolone derivatives as nitroxyl donors” (Cardioxyl Pharmaceuticals, Inc., priority 2015, dated 2020).
Like-named read-outs stand apart in the source and are kept apart here. Each block holds one molecule with its values, some of them ahead of it.

Test: Pharmacokinetic activity in rats: IV bolus and oral gavage; plasma, brain and CSF levels by LC-MS/MS
Format: in vivo, Male Sprague-Dawley rats
Conditions: rat; for Tmax: PO administration of Compound 6, 10 mg/kg, read-out: median Tmax; for presence in brain samples: levels believed due to contamination of brain samples with blood
Description: Male Sprague-Dawley rats (n=3/group) were assigned to Groups 1 to 6. Group 1 was administered an intravenous bolus dose of 1 mg/kg a test compound in 30% polyethyleneglycol-200 (PEG-200): 10% DMSO in saline. Serial samples of blood were collected at 0.05, 0.15, 0.75, 1.5, 3, 6, 10 and 24 hours via an implanted jugular vein catheter. Groups 2-6 received oral gavage doses of a test compound, formulated in 100% PEG300 (10 mg/kg). Rats from groups 2-6 were sacrificed at 0.25, 2, 6, 10 or 24 hours post-dose and blood samples (1 mL via cardiac puncture) were collected into chilled tubes containing K2EDTA as the anticoagulant. CSF and brain tissue were also collected at these time points. Blood samples were immediately centrifuged at 3000 g for 5 minutes under refrigerated conditions (4° C.). Plasmas and CSF samples were mixed with an aqueous solution of ascorbic acid to reach a final concentration of 2%. Brain, plasma and CSF samples were stored at −80° C. until analysis. The test compound and by-product concentrations were determined by LC-MS/MS. The eluent from a reversed-phase gradient (water/acetonitrile both containing 0.1% v/v formic acid) on a 1290 UHPLC system (Agilent Technologies, Stockport, UK) was introduced by positive electrospray ionization into an API6500 mass spectrometer (AB Sciex, Warrington, UK) and analyzed by multiple reaction monitoring (MRM). The lower limit of quantification (LLOQ) was in the range 1-10 ng/mL for the test compound and by-products. The mean plasma concentration-time data for each group were used to calculate pharmacokinetic parameters of the test compound and by-products with the software program Phoenix WinNonlin version 6.4 (Certara L. P., Princeton, N.J.).

[1] = male, Sprague-Dawley, plasma, PO administration of Compound 6, 10 mg/kg in 100% PEG300, mean, read-out: plasma Cmax
[2] = male, Sprague-Dawley, IV bolus 1 mg/kg, plasma

- levels in plasma, brain and CSF (compared with Compound 6a) (after dosing Compound 6): much lower levels
Compound: Cc1c(-c2ccc(S(C)(=O)=O)cc2)nn(CC(=O)O)c1O [2-[5-hydroxy-3-(4-methanesulfonylphenyl)-4-methyl-1H-pyrazol-1-yl]acetic acid]

- Cmax (male, Sprague-Dawley, CSF, PO Compound 6 10 mg/kg, at 2 h, read-out: Cmax in CSF): 107 ± 33 ng/mL
- Cmax (male, Sprague-Dawley, brain, PO Compound 6 10 mg/kg, at 2 h, read-out: Cmax in brain): 85 ± 22 ng/g
- Cmax [1]: 5220 ng/mL
- Tmax (male, Sprague-Dawley, plasma): 15 min
- amount in brain (PO Compound 6 10 mg/kg): low
- plasma concentration relative to parent compound (Compound 6) (PO Compound 6 10 mg/kg, at Cmax (0.25 h)): 700 fold
- plasma concentration relative to parent compound (Compound 6) (PO Compound 6 10 mg/kg, by 2 h): 2000 fold
- share among drug-related components observed in the samples (after dosing Compound 6): major drug-related component
- distribution (after oral dosing of Compound 6): restricted to the periphery
- presence in brain samples: Traces
Compound: CC1(NO)C(=O)N(CC(=O)O)N=C1c1ccc(S(C)(=O)=O)cc1 (stereo not shown) [Compound 6a, 2-[4-(hydroxyamino)-3-(4-methanesulfonylphenyl)-4-methyl-5-oxo-4,5-dihydro-1H-pyrazol-1-yl]acetic acid]

- levels in plasma, brain and CSF (compared with Compound 6a) (after dosing Compound 6): much lower levels
Compound: CCOC(=O)Cn1nc(-c2ccc(S(C)(=O)=O)cc2)c(C)c1O [ethyl 2-[5-hydroxy-3-(4-methanesulfonylphenyl)-4-methyl-1H-pyrazol-1-yl]acetate]

- Kp (male, Sprague-Dawley, CSF, PO 10 mg/kg, 0.25-2 h, read-out: mean CSF:plasma ratio): 4
- Cmax (male, Sprague-Dawley, CSF, PO Compound 6 10 mg/kg, at 0.25 h, read-out: Cmax in CSF): 26 ± 18 ng/mL
- Kp at 0.25 h (male, Sprague-Dawley, brain, PO 10 mg/kg, 0.25 h, read-out: mean brain:plasma ratio): 1.1
- Cmax (male, Sprague-Dawley, brain, PO Compound 6 10 mg/kg, at 0.25 h, read-out: Cmax in brain): 8 ± 2 ng/g
- clearance (male, Sprague-Dawley, plasma, IV bolus 1 mg/kg in 30% PEG-200:10% DMSO in saline): 41 ± 2 mL/min/kg
- Vd (male, Sprague-Dawley, plasma, IV bolus 1 mg/kg, read-out: volume of distribution): 1.1 ± 0.1 L/kg
- Cmax [1]: 8 ng/mL
- C0 [2]: 110 ± 10 ng/mL
- half-life [2]: 24 ± 0.6 min
- Tmax (male, Sprague-Dawley, plasma): 15 min
- absorption after oral dosing (PO 10 mg/kg): very well absorbed
- presence in brain samples: Traces
Compound: CCOC(=O)CN1N=C(c2ccc(S(C)(=O)=O)cc2)C(C)(NO)C1=O (stereo not shown) [Compound 6, Ethyl 2-[4-(hydroxyamino)-3-(4-methanesulfonylphenyl)-4-methyl-5-oxo-4,5-dihydro-1H-pyrazol-1-yl]acetate]
- metabolism (after oral dosing): rapidly metabolized at the ester function
